According to publication PMC9005681, “Use of AD Informer Set compounds to explore validity of novel targets in Alzheimer's disease pathology” (Alzheimer's & Dementia : Translational Research & Clinical …, 2022):

Key:
Assay in all cases: PDSP GPCR panel primary binding assays at 10 μM
[1] = target: T1, cloned human or rodent CNS receptors, channels, and transporters (PDSP panel) (Homo sapiens, UniProt P14416); details: Receptor D2, primary assay, 10 μM
T1 construct: expressed in transfected cells
Summary of the method: (§1)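 Primary screen: 10 μM, quadruplicate, displacement of radio-labeled standard ligand. Hit cut-off >50% mean displacement → secondary 11-point dose-response, triplicate. H3, PBR, GABAA excluded from follow-up.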

[2] = test system: cloned human or rodent CNS receptors, channels, and transporters (PDSP panel); details: primary assay, 10 μM; for Mean %: mean of Inhibition 1-4
Summary of the method: as §1

[3] = target: T2, cloned human or rodent CNS receptors, channels, and transporters (PDSP panel) (Homo sapiens, UniProt P11229); details: Receptor M1, primary assay, 10 μM
T2 construct: expressed in transfected cells
T2 sequence (P11229 1-460): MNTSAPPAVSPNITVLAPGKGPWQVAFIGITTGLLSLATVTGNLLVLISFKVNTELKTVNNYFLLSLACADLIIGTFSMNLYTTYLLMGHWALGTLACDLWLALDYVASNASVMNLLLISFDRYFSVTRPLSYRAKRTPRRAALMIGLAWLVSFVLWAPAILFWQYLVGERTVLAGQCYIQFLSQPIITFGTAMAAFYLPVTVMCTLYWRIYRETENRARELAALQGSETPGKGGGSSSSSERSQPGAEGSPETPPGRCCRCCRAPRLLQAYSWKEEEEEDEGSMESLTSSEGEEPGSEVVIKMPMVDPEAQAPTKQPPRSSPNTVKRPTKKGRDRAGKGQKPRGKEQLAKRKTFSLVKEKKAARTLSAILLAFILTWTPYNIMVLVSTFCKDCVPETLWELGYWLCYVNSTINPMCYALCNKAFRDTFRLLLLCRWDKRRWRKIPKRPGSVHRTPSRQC
Summary of the method: as §1

[4] = target: T3, cloned human or rodent CNS receptors, channels, and transporters (PDSP panel) (Homo sapiens, UniProt P28335); details: Receptor 5-HT2C, primary assay, 10 μM
T3 construct: expressed in transfected cells
T3 sequence (P28335 33-458): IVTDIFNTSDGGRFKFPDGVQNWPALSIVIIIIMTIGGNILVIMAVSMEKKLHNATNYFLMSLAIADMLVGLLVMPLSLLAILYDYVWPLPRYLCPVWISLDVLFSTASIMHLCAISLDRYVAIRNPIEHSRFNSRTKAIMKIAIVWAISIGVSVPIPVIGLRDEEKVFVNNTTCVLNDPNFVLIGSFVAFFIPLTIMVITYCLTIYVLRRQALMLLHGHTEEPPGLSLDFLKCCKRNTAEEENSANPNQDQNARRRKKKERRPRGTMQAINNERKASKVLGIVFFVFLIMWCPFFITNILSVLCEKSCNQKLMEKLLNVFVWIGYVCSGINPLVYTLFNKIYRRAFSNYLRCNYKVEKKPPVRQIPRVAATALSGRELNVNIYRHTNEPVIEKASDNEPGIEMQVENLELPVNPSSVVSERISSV
Summary of the method: as §1

[5] = target: T4, cloned human or rodent CNS receptors, channels, and transporters (PDSP panel) (Homo sapiens, UniProt P35462); details: Receptor D3, primary assay, 10 μM
T4 construct: expressed in transfected cells
Summary of the method: as §1

[6] = target: T5, cloned human or rodent CNS receptors, channels, and transporters (PDSP panel) (Homo sapiens, UniProt Q01959); details: Receptor DAT, primary assay, 10 μM
T5 construct: expressed in transfected cells
Summary of the method: as §1

T1 sequence (P14416 whole entry): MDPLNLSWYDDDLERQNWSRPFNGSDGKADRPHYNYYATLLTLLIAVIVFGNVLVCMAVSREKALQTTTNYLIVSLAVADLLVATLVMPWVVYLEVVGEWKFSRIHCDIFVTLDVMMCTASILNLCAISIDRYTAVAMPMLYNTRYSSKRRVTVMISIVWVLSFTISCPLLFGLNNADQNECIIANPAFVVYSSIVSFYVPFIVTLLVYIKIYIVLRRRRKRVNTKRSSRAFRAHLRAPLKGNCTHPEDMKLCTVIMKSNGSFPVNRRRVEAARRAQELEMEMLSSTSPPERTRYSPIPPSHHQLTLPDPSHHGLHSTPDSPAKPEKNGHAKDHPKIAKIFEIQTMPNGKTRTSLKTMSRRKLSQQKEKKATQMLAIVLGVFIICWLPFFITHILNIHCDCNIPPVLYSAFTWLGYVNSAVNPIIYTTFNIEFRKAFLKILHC
T5 sequence (Q01959 whole entry): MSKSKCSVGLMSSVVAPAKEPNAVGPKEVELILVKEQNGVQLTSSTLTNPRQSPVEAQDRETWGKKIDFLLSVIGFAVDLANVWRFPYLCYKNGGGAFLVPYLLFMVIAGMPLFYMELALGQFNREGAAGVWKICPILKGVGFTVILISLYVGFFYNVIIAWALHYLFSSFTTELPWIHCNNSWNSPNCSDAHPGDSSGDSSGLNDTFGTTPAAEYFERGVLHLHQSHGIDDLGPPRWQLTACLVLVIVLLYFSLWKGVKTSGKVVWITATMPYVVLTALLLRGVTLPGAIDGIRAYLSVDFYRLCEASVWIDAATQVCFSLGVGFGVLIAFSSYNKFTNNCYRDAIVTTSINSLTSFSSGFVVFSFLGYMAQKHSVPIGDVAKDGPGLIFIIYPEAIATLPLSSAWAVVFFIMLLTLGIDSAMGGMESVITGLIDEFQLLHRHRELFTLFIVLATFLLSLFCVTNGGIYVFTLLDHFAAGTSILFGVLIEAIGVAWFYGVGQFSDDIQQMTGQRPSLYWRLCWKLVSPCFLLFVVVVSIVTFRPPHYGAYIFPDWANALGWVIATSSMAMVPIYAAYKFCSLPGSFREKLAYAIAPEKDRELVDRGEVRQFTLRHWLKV
T4 sequence (P35462 whole entry): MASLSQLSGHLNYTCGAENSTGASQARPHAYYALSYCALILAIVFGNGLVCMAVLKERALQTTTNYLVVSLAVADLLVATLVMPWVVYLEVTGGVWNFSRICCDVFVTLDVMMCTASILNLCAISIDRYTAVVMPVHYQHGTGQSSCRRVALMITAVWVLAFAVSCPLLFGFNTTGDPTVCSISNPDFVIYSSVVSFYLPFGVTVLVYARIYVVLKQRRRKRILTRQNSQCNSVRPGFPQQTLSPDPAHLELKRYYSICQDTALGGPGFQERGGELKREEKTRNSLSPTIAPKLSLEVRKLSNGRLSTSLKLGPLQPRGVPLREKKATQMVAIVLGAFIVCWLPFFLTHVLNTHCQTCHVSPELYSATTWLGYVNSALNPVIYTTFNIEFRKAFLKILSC

c1cn2cc(-c3ccc4cn[nH]c4c3)nc(Nc3ccc(N4CCOCC4)cc3)c2n1 [UNC10302678A, Entospletinib (GS-9973)]
Inhibition 1 [1]: 15.89% | Inhibition 2 [1]: 4.51% | Inhibition 3 [1]: -1.13% | Inhibition 4 [1]: -7.35% | Mean % ([1]; mean of Inhibition 1-4): 2.98% | Inhibition 1 ([2]; Receptor Alpha1A): -6.64% | Inhibition 2 ([2]; Receptor Alpha1A): -39.37% | Inhibition 3 ([2]; Receptor Alpha1A): -29.27% | Inhibition 4 ([2]; Receptor Alpha1A): -15.24% | Mean % ([2]; Receptor Alpha1A): -22.63% | Inhibition 1 ([2]; Receptor Alpha2A): -9.73% | Inhibition 2 ([2]; Receptor Alpha2A): -11.16% | Inhibition 3 ([2]; Receptor Alpha2A): -12.52% | Inhibition 4 ([2]; Receptor Alpha2A): 5.61% | Mean % ([2]; Receptor Alpha2A): -6.95% | Inhibition 1 ([2]; Receptor Alpha2C): 4.82% | Inhibition 2 ([2]; Receptor Alpha2C): 7.15% | Inhibition 3 ([2]; Receptor Alpha2C): 3.37% | Inhibition 4 ([2]; Receptor Alpha2C): 11.76% | Mean % ([2]; Receptor Alpha2C): 6.78% | Inhibition 1 ([2]; Receptor BZP Rat Brain Site): 2.63% | Inhibition 2 ([2]; Receptor BZP Rat Brain Site): -6.94% | Inhibition 3 ([2]; Receptor BZP Rat Brain Site): -0.59% | Inhibition 4 ([2]; Receptor BZP Rat Brain Site): 10.21% | Mean % ([2]; Receptor BZP Rat Brain Site): 1.33% | Inhibition 1 ([2]; Receptor DOR): -7.03% | Inhibition 2 ([2]; Receptor DOR): -15.52% | Inhibition 3 ([2]; Receptor DOR): 1.47% | Inhibition 4 ([2]; Receptor DOR): -11.54% | Mean % ([2]; Receptor DOR): -8.16% | Inhibition 1 ([2]; Receptor H3): 4.01% | Inhibition 2 ([2]; Receptor H3): 32.57% | Inhibition 3 ([2]; Receptor H3): 40.44% | Inhibition 4 ([2]; Receptor H3): 49.18% | Mean % ([2]; Receptor H3): 31.55% | Inhibition 1 ([2]; Receptor H4): 40.38% | Inhibition 2 ([2]; Receptor H4): 31.02% | Inhibition 3 ([2]; Receptor H4): 31.26% | Inhibition 4 ([2]; Receptor H4): 64.39% | Mean % ([2]; Receptor H4): 41.76% | Inhibition 1 ([2]; Receptor Sigma 1): 24.21% | Inhibition 2 ([2]; Receptor Sigma 1): 17.43% | Inhibition 3 ([2]; Receptor Sigma 1): 8.82% | Inhibition 4 ([2]; Receptor Sigma 1): -3.67% | Mean % ([2]; Receptor Sigma 1): 11.7% | Inhibition 1 ([2]; Receptor Sigma 2): 10.94% | Inhibition 2 ([2]; Receptor Sigma 2): -1.79% | Inhibition 3 ([2]; Receptor Sigma 2): -3.28% | Inhibition 4 ([2]; Receptor Sigma 2): -0.08% | Mean % ([2]; Receptor Sigma 2): 1.45% | Inhibition 1 [3]: 19.66% | Inhibition 2 [3]: -3.67% | Inhibition 3 [3]: -8.18% | Inhibition 4 [3]: 2.73% | Mean % ([3]; mean of Inhibition 1-4): 2.64% | Inhibition 1 [4]: -15.71% | Inhibition 2 [4]: 5.4% | Inhibition 3 [4]: -17.18% | Inhibition 4 [4]: -19.14% | Mean % ([4]; mean of Inhibition 1-4): -11.66% | Inhibition 1 [5]: -22.2% | Inhibition 2 [5]: -12.17% | Inhibition 3 [5]: 0% | Inhibition 4 [5]: -11.01% | Mean % ([5]; mean of Inhibition 1-4): -11.35% | Inhibition 1 [6]: 27.87% | Inhibition 2 [6]: 18.37% | Inhibition 3 [6]: 25.5% | Inhibition 4 [6]: 31.55% | Mean % ([6]; mean of Inhibition 1-4): 25.82%
